According to patent US20050061314A1, “Metered dose inhaler” (Vactura Limited, priority 2001, published 2005):

Columns and labels:
[1] = test system: effect of THC; details: cited from earlier work
[2] = test system: cataleptic effect of THC; details: mice; cited from earlier work
[3] = Andersen Cascade Impactor aerosol characterisation of pMDI solution formulations; type: physicochemical
Protocol: The FPD, which provides a direct measurement of the aerosol particles considered suitable for deposition and retention in the respiratory tract, is calculated as the mass of the particles deposited from stage 3 to the filter (particles with an aerodynamic diameter less than 4.7 μm) in an Andersen Cascade Impactor.
The aerodynamic particle size distribution of an aerosol formulation is characterised using a Multistage Cascade Impactor according to the procedure described in European Pharmacopoeia 2nd edition, 1995, part V.5.9.1, pages 15-17. Generally an Andersen Cascade Impactor (ACI) is utilised. Deposition of the drug on each ACI plate is determined by high performance liquid chromatography (HPLC). Mean metered dose is calculated from the cumulative deposition in the actuator and ACI stages; mean delivered dose is calculated from the cumulative deposition in the ACI. Mean respirable dose (fine particle dose, i.e. FPD) which provides a direct measurement of the aerosol particles is considered suitable for deposition and retention in the respiratory tract, is obtained from the deposition on Stage 3 (S3) to filter (AF) corresponding to particles with an aerodynamic diameter ≦4.7 μm. Smaller particles, with an aerodynamic diameter ≦1.1 μm correspond to the fraction obtained from the deposition on Stage 6 to filter.
The FPD can also be expressed as a percentage of the ex-valve dose or recovered dose (i.e. Fine Particle Fraction: FPF≦4.7 μm or FPF≦1.1 μm). Shot weights are measured by weighing each canister before and after the actuation.
The experiments of example 2 consisted of discharging Δ^9-THC (THC)/ethanol/glycerol/HFA 134a and Δ^9-THC hemisuccinate (THC-HS)/ethanol/glycerol/HFA 134a formulations through actuator inserts housed in a modified Bespak actuator (630 series) into an Andersen Cascade Impactor operated at 28.3 L min^−1. Two product strengths, 100 μg/dose and 1000 μg/dose, were used in combination with 5% or 10% w/w ethanol, and 0.1% or 0.3% glycerol. Experiments were conducted using 0.14 and 0.16 mm diameter, 0.60 mm long, laser drilled actuator orifices in accordance with the invention in its preferred aspects and a third party supplied actuator with an orifice diameter of 0.22 mm. The quantities of drug deposited on the actuator, the throat and the stages of the impactor were measured. The delivered dose, the mass median aerodynamic diameter (MMAD), the geometric standard deviation (GSD), the fine particle dose ≦4.7 μm (FPD≦4.7) and the fine particle dose ≦1.1 μm (FPD≦1.1) were calculated from the results of these experiments and are set out in tables 3 and 4. The FPDs were also expressed as a % fraction of the ex-valve dose (FPF≦4.7, FPF≦1.1). Shot weight was measured by weighing the pMDI before and after discharge. These latter parameters are also set out in tables 3 and 4 along with other results of these experiments.

[4] = test system: asthmatic patients; details: pMDI with CFC propellant and ethanol; cited from earlier work
[5] = test system: mice; details: cited from earlier work
[6] = test system: GABA; details: cited from earlier work
[7] = mouse brain; cited from earlier work
[8] = 100 μg, 5% Ethanol, 0.1% Glycerol, HFA134a, 50 μl, Actuator 0.14 mm
[9] = 100 μg/50 μl/134a, 5% Et, 0.1% Gly, 0.14 mm Aluminium insert (4b)
[10] = 100 μg/50 μl/134a, 5% Et, 0.1% Gly, 0.16 mm Al insert (11A)
[11] = 100 μg/50 μl/134a, 5% Et, 0.1% Gly, 0.22 mm Bespak Actuator
[12] = 100 μg/50 μl/134a, 10% Et, 0.3% Gly, 0.14 mm Aluminium insert (4b)
[13] = 1000 μg, 5% Ethanol, 0.1% Glycerol, HFA134a, 50 μl, Actuator 0.14 mm

CCCCCc1cc(O)c2c(c1)OC(C)(C)c1ccc(C)cc1-2 [CBN, cannabinol]
effect on the effect of THC in man [1]: potentates the effect of THC
effect on cataleptic effect of THC [2]: antagonises cataleptic effect of THC

CCCCCc1cc(OC(=O)CCC(=O)O)c2c(c1)OC(C)(C)[C@@H]1CCC(C)=C[C@@H]21 [THC-HS, Δ^9-THC hemisuccinate]
Delivered [3, 8]: 97.30 µg
FPD<1.1 μm [3, 8]: 37.56 µg
FPD<3.3 μm [3, 8]: 89.66 µg
FPD<4.7 μm [3, 8]: 91.94 µg
FPF<1.1 μm [3, 8]: 36.86%
FPF<3.3 μm [3, 8]: 87.99%
FPF<4.7 [3, 8]: 90.23%
GSD [3, 8]: 1.7
MMAD [3, 8]: 1.3 μm
Recovered [3, 8]: 101.90 µg
Shot Weight ± SD [3, 8]: 64.7 ± 0.5 mg
Actuator [3, 9]: 4.57 µg
Delivered [3, 9]: 97.30 µg
Dose < 1.1 μm [3, 9]: 37.56 µg
FPD<3.3 μm [3, 9]: 89.66 µg
FPD<4.7 μm [3, 9]: 91.94 µg
FPF<1.1 μm [3, 9]: 36.86%
FPF<3.3 μm [3, 9]: 87.99%
FPF<4.7 [3, 9]: 90.23%
GSD [3, 9]: 1.7
MMAD [3, 9]: 1.3 μm
Recovered [3, 9]: 101.90 µg
Shot Weight ± SD [3, 9]: 64.7 ± 0.5 mg
Throat [3, 9]: 3.51 µg
Actuator [3, 10]: 4.88 µg
Delivered [3, 10]: 93.40 µg
Dose < 1.1 μm [3, 10]: 28.19 µg
FPD<3.3 μm [3, 10]: 80.07 µg
FPD<4.7 μm [3, 10]: 83.56 µg
FPF<1.1 μm [3, 10]: 28.59%
FPF<3.3 μm [3, 10]: 81.25%
FPF<4.7 [3, 10]: 84.79%
GSD [3, 10]: 1.8
MMAD [3, 10]: 1.4 μm
Recovered [3, 10]: 98.55 µg
Shot Weight ± SD [3, 10]: 62.0 ± 0.6 mg
Throat [3, 10]: 7.52 µg
Actuator [3, 11]: 7.71 µg
Delivered [3, 11]: 98.00 µg
Dose < 1.1 μm [3, 11]: 24.30 µg
FPD<3.3 μm [3, 11]: 77.43 µg
FPD<4.7 μm [3, 11]: 82.02 µg
FPF<1.1 μm [3, 11]: 22.99%
FPF<3.3 μm [3, 11]: 73.25%
FPF<4.7 [3, 11]: 77.60%
GSD [3, 11]: 1.7
MMAD [3, 11]: 1.5 μm
Recovered [3, 11]: 105.70 µg
Shot Weight ± SD [3, 11]: 62.6 ± 0.4 mg
Throat [3, 11]: 13.82 µg
Actuator [3, 12]: 4.35 µg
Delivered [3, 12]: 79.50 µg
Dose < 1.1 μm [3, 12]: 14.21 µg
FPD<3.3 μm [3, 12]: 65.50 µg
FPD<4.7 μm [3, 12]: 70.93 µg
FPF<1.1 μm [3, 12]: 16.96%
FPF<3.3 μm [3, 12]: 78.16%
FPF<4.7 [3, 12]: 84.64%
GSD [3, 12]: 1.7
MMAD [3, 12]: 1.7 μm
Recovered [3, 12]: 83.80 µg
Shot Weight ± SD [3, 12]: 60.7 ± 0.6 mg
Throat [3, 12]: 5.93 µg
Delivered [3, 13]: 834.3 µg
FPD<1.1 μm [3, 13]: 138.04 µg
FPD<3.3 μm [3, 13]: 676.16 µg
FPD<4.7 μm [3, 13]: 771.92 µg
FPF<1.1 μm [3, 13]: 15.83%
FPF<3.3 μm [3, 13]: 77.56%
FPF<4.7 [3, 13]: 88.54%
GSD [3, 13]: 1.7
MMAD [3, 13]: 1.9 μm
Recovered [3, 13]: 871.8 µg
Shot Weight ± SD [3, 13]: 64.7 ± 0.6 mg

CCCCCc1cc(O)c2c(c1)OC(C)(C)[C@@H]1CCC(C)=C[C@@H]21 [THC, Δ^9-tetrahydrocannabinol, reference compound]
Delivered [3, 8]: 108.2 µg
FPD<1.1 μm [3, 8]: 42.01 µg
FPD<3.3 μm [3, 8]: 98.02 µg
FPD<4.7 μm [3, 8]: 101.71 µg
FPF<1.1 μm [3, 8]: 36.63%
FPF<3.3 μm [3, 8]: 85.46%
FPF<4.7 [3, 8]: 88.67%
GSD [3, 8]: 1.8
MMAD [3, 8]: 1.3 μm
Recovered [3, 8]: 114.7 µg
Shot Weight ± SD [3, 8]: 62.4 ± 0.8 mg
Delivered [3, 13]: 1044.5 µg
FPD<1.1 μm [3, 13]: 129.7 µg
FPD<3.3 μm [3, 13]: 735.5 µg
FPD<4.7 μm [3, 13]: 907.14 µg
FPF<1.1 μm [3, 13]: 11.69%
FPF<3.3 μm [3, 13]: 66.32%
FPF<4.7 [3, 13]: 81.79%
GSD [3, 13]: 1.7
MMAD [3, 13]: 2.3 μm
Recovered [3, 13]: 1109.1 µg
Shot Weight ± SD [3, 13]: 63.8 ± 0.4 mg
bronchodilatory effect [4]: bronchodilatory effect

CCCCCc1cc(O)c2c(c1)OC(C)(CCC=C(C)C)C=C2 (stereo not drawn) [CBC, cannabichromene]
effect on LD50 of THC [5]: does lower LD50 of THC

CCCCCc1cc(O)c(C/C=C(\C)CCC=C(C)C)c(O)c1 [CBG, cannabigerol]
GABA inhibitor potency relative to THC [6]: more potent GABA inhibitor than THC

C=C(C)[C@@H]1CCC(C)=C[C@H]1c1c(O)cc(CCCCC)cc1O [CBD, cannabidiol]
effect on THC levels in the brain [7]: increases THC levels
